Entries after “also recorded” stand apart in the source; their conditions may differ.

This is an account of results in patent publication US20200292529A1, “NEW DRUG SCREENING ASSAY USING REGULATORY MACROPHAGES” (Universität Regensburg, priority 2017, published 2020).

In test [1] the test system is Foxp3+CD25+ iTreg cells. Briefly: Mreg co-culture with naïve CD4+ T cells in lidded FACS tubes, iTreg analysis by flow cytometry. Type of test: cell-based, human. Particulars: tacrolimus 1 nM to 10 μM during co-culture; n=3 donors; FIG. 1. The procedure: (§1) A preparation of human Mregs (“Mreg B”) was prepared in 75 cm^2 flasks according to a modified protocol of Hutchinson. Peripheral blood mononuclear cells (PBMC) were obtained from a healthy donor for use as starting material for Mreg generation. The donor was screened for relevant disease markers, including infectious diseases, not more than 30 days prior to collection of PBMC. The donor was re-screened for the same disease markers on the day of leucocyte donation. PBMC were obtained by leukapheresis using the Spectra Optia® device. Human Mregs can also be generated from leukapheresates collected with alternative devices or from whole blood samples. PBMC from leukapheresis products were further purified by Ficoll-gradient centrifugation. CD14^+ monocytes were isolated from Ficoll-separated, washed PBMC by positive magnetic bead selection using research-grade CD14 microbeads (Miltenyi Biotec, GmbH) in accordance with the manufacturer's instructions. The preparation of isolated monocytes was quality-controlled for viability and purity of CD14^+ cells and contamination with CD3^+ T cells by flow cytometry. Isolated monocytes were resuspended in Mreg culture medium at a density of 7.5×10^5 viable monocytes/ml then plated in Cell+T75 flasks (Sarstedt) at 2×10^5 viable monocytes/cm^2 in a total volume of 20 ml medium. […]

Test [2] relates to Foxp3+CD25+ iTreg cells. Briefly: Mreg-induced iTreg assay: Mreg co-culture with allogeneic CD3+ T cells in 96 well plates. Type of test: cell-based. To be noted: recombinant human IFN-γ 0-100 ng/ml during co-culture; n=8 donors; p<0.0001; FIG. 6. The procedure:
as §1

Consider `C=CC[C@@H]1/C=C(\C)C[C@H](C)C[C@H](OC)[C@H]2O[C@@](O)(C(=O)C(=O)N3CCCC[C@H]3C(=O)O[C@H](/C(C)=C/[C@@H]3CC[C@@H](O)[C@H](OC)C3)[C@H](C)[C@@H](O)CC1=O)[C@H](C)C[C@@H]2OC` [tacrolimus], for which, in the test on Foxp3+CD25+ iTreg cells [1], the “Mreg-mediated iTreg generation (Foxp3+CD25+ iTreg cells)” value is listed as “inhibited the formation of Foxp3+CD25+ iTreg cells in a dose-dependent manner; also recorded: potently suppressed iTreg generation in a dose-dependent manner”.

B1: IFN-γ: recombinant human interferon gamma added to Mreg-T cell co-cultures (protein, UniProt P01579 24-161, looked up)
Interferon gamma: QDPYVKEAENLKKYFNAGHSDVADNGTLFLGILKNWKEESDRKIMQSQIVSFYFKLFKNFKDDQSIQKSVETIKEDMNVKFFNSNKKKRDDFEKLTNYSVTDLNVQRKAIHELIQVMAELSPAAKTGKRKRSQMLFRG
As to B1, the “iTreg generation versus IFN-γ concentration in the co-culture phase (linear regression)” value with Foxp3+CD25+ iTreg cells [2] was “significant dose-dependent relationship”.
